Assay results: PMC6688628, “N-Substituted Pyrrole Derivative 12m Inhibits HIV-1 Entry by Targeting Gp41 of HIV-1 Envelope Glycoprotein” (Frontiers in Pharmacology, 2019)

Experiments:
[1] = tested on: HIV-1JR-FL (R5 strain) Env pseudotyped virus; assay: microbe, parasite or virus in culture; type: cell-based; conditions: Human immunodeficiency virus 1, single-cycle infection, luciferase
[2] = tested on: HIV-1 Env-mediated fusion of CHO-WT cells with MT-2 cells; assay: HIV-1 Env-mediated cell-cell fusion (syncytium formation); type: cell-based; conditions: Human immunodeficiency virus 1, MT2; CHO-WT effector cells, MT-2 target cells; 48 h
Procedure: Here, a noninfectious cell–cell fusion assay was used to determine the effect of NSPD-12m on the early step of HIV-1 entry into a target cell as described previously ([Li et al., 2010]). Briefly, 1 × 10^5 CHO-WT cells expressing the HIV-1 envelope glycoprotein gp160 (as the effector cells) were preincubated with graded concentrations of NSPD-12m at 37°C for 30 min. Then, 1 × 10^5 MT-2 cells expressing the CD4 receptor and the CXCR4 coreceptor (as the target cells) were added and cocultured for another 48 h. The obvious syncytia could be counted under an inverted microscope (Nikon, Japan). Four fields per well were examined randomly. The EC50 values were calculated as described previously ([Chou and Talalay, 1984]).

[3] = tested on: HIV-1JR-FL Env mutant R579A pseudovirus; type: cell-based; conditions: compared with wild-type HIV-1JR-FL pseudovirus
[4] = tested on: HIV-1JR-FL Env mutant Q577A pseudovirus; type: cell-based; conditions: compared with wild-type HIV-1JR-FL pseudovirus
gp41 6-HB (N36/C34) = target: T1, gp41 6-HB (N36/C34) (Human immunodeficiency virus type 1 group M subtype B, UniProt P04578); assay: Sandwich ELISA for gp41 6-HB formation; type: biochemical, HIV-1; conditions: sandwich ELISA with mAb NC-1; 0.5-µM N36 and C34
T1 construct: purchased GL Biochem of China; host or cells: chemical solid-phase Fmoc synthesis
Procedure: The inhibition of gp41 6-HB formation by NSPD-12m was determined by a sandwich ELISA as previously described ([Liu et al., 2007]). In brief, the wells of a 96-well polystyrene plate (Corning) were first precoated with 2 µg/ml IgG purified from rabbit antisera against the N36/C34 complex at 4°C overnight. In addition, the wells were blocked by 2% dry nonfat milk at 37°C for 1 h. NSPD-12m at graded concentrations was incubated with 0.5-µM N36 at 37°C for 30 min, followed by the addition of 0.5-µM C34 at 37°C for another 30-min incubation. Afterward, the previously mentioned mixtures were added to the prepared wells and incubated at 37°C for another 1 h. Then, 1 µg/ml mAb NC-1, biotin-labeled goat anti-mouse IgG (1:10,000 diluted in PBS buffer with 2% dry nonfat milk), SA-HRP (1:20,000 diluted in PBS buffer with 10% goat serum), TMB, and 1-M H2SO4 were added sequentially. A450 was measured by an ELISA reader, and EC50 was calculated using CalcuSyn software ([Chou and Talalay, 1984]). NB-64, a small-molecule HIV entry inhibitor targeting gp41, and ADS-J1 were used as positive controls.

[5] = target: T2, synthetic peptide N36 (gp41 NHR) (Human immunodeficiency virus type 1 group M subtype B, UniProt P04578); assay: Surface plasmon resonance binding to N36; parameters: species or system HIV-1; conditions: SPR, compound immobilized on chip, N36 injected, 25°C; read-out: binding affinity (KD) to N36
T2 construct: purchased GL Biochem of China; host or cells: chemical solid-phase Fmoc synthesis
Procedure: N36 at different concentrations (125, 250, and 500 µM in PBS) was injected at a flow rate of 2 µl/s with an association and dissociation time of 300 s at 25°C. At the end of each cycle, glycine–HCl buffer (pH 2.0) at a flow rate of 3 µl/s was used to regenerate the surface of the sensor chip platform with a regeneration time of 300 s. The binding affinity (KD) was calculated using the PlexeraDE data analysis module and GraphPad Prism 5.0 software.

HIV-1 R5 virus = assay: Cell-cell HIV-1 R5 transmission, MT-2 to CEMx174 5.25 M7 cells; type: cell-based; conditions: Human immunodeficiency virus 1; infected MT-2 to CEMx174 5.25 M7 cells; luciferase
Procedure: (§1) Inhibition of fusion between MT-2 cells infected by HIV-1 strains (X4 and R5 viruses) with CEMx174 5.25 M7 cells, which express CD4 and both coreceptors, CXCR4 and CCR5, was determined by a luciferase assay. Briefly, MT-2 cells were infected with the corresponding HIV-1 strains for 7 days. The infected MT-2 cells were washed three times and resuspended in culture medium to 2 × 10^5/ml. Then, 50 μl of a compound at graded concentrations in triplicate was incubated with equal volumes of HIV-1-infected MT-2 cells at 37°C for 30 min. Next, 100 μl of CEMx174 5.25 M7 cells (4 × 10^5/ml) was added, and the cells were incubated at 37°C for 3 days. The cells were collected, washed, and lysed with the lysing reagent included in the luciferase kit (Promega, Corp., Madison, Wis). Aliquots of cell lysates were transferred to 96-well flat-bottom luminometer plates (Costar), followed by the addition of luciferase substrate (Promega). Luciferase activity was measured using an Ultra 384 luminometer. ADS-J1 was used as a positive control for all cell–cell fusion assays.

[6] = tested on: HIV-1 NL4-3(36G)V38E,N42S; conditions: T20-resistant NL4-3(36G)V38E,N42S; p24 ELISA; mean ± SD
HIV-1 92UG029 = assay: Anti-HIV-1 activity, primary strain 92UG029; type: cell-based; conditions: Human immunodeficiency virus 1, luciferase readout, mean ± SD
[7] = XTT assay, U87-CD4-CCR5 cells; type: cell-based; conditions: human
Procedure: The in vitro cell viability of NSPD-12m on HIV-1 target cells (U87-CD4-CXCR4, U87-CD4-CCR5, TZM-bl, and MT-2 cells) and HIV effector cells (CHO-WT cells) was analyzed by an XTT colorimetric assay. Briefly, 100 µl of 5 × 10^5/ml cells was mixed and incubated with 100 µl of NSPD-12m at graded concentrations at 37°C for 3 days. Then, 50 µl of XTT solution (1 mg/ml) containing 0.02 µM of phenazinemethosulphate (PMS) was added to each well, and the cells were incubated at 37°C for another 4 h. The absorbance at 450 nm was measured with an ELISA reader. The 50% cytotoxicity concentrations (CC50) were calculated using the CalcuSyn software ([Chou and Talalay, 1984]).

[8] = tested on: HIV-1 NL4-3(36G)V38A,N42T; conditions: T20-resistant NL4-3(36G)V38A,N42T; p24 ELISA; mean ± SD
HIV-1 IIIB = assay: Cell-cell HIV-1 IIIB transmission, MT-2 to CEMx174 5.25 M7 cells; type: cell-based; conditions: Human immunodeficiency virus 1, IIIB; infected MT-2 to CEMx174 5.25 M7 cells; luciferase
Procedure: as §1

HIV-1 NL4-3(36G)V38A = conditions: T20-resistant NL4-3(36G)V38A; p24 ELISA; mean ± SD

T1 sequence (P04578 546-581): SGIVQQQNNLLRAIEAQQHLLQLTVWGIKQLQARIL
T2 sequence (P04578 546-581): as above

Cc1cc(/C=C2\SC(=S)N(Cc3ccccc3C(F)(F)F)C2=O)c(C)n1-c1ccc(O)c(C(=O)O)c1 [NSPD-12m]
EC50 [1]: ~14 µM | EC50 [2]: 14.4 ± 1.24 µM | inhibitory activity against R579A mutant pseudovirus [3]: retained the inhibitory activity | inhibitory activity against Q577A mutant pseudovirus [4]: retained the inhibitory activity | EC50 (gp41 6-HB (N36/C34)): 23 ± 1.44 µM | Kd [5]: 0.411 µM | EC50 (HIV-1 R5 virus): 1.42 ± 0.3 µM | IC50 [6]: 5.26 ± 0.762 µM | IC90 [6]: 19.6 ± 0.552 µM | IC50 (HIV-1 92UG029): 2.08 ± 0.041 µM | IC90 (HIV-1 92UG029): 2.48 ± 0.041 µM | CC50 at 3 days [7]: 84.7 ± 14.5 µM | CC90 at 3 days [7]: 102 ± 18.3 µM | IC50 [8]: 16.3 ± 3.03 µM | IC90 [8]: 33.9 ± 6.14 µM | EC50 (HIV-1 IIIB): 1.99 ± 0.08 µM | IC50 (HIV-1 NL4-3(36G)V38A): 23.7 ± 5.15 µM | IC90 (HIV-1 NL4-3(36G)V38A): 32.5 ± 5.42 µM
